From ChEMBL document CHEMBL1143450, “Potential metabolites of a condensed 2,3-benzodiazepine derivative” (Bioorg Med Chem Lett, 2005)

How the values were obtained:
Gallus gallus [1] = species on record: Gallus gallus; test: Evaluated for inhibition of AMPA (5 uM) evoked spreading depression in isolated retina prepared from young chicken; type: functional
Mus musculus [2] = test: Effective p.o. dose tested for anticonvulsant activity using maximal electroshock seizure model in mouse (value range= 17.9-32.1 mg/kg); settings: po
Mus musculus [3] = test: Effective i.p. dose tested for muscle relaxant activity using inclined screen test in mouse (value range= 29.4-45.2 mg/kg); settings: ip
Mus musculus [4] = test: Effective p.o. dose tested for anticonvulsant activity using maximal electroshock seizure model in mouse (value range=25-50 mg/kg); settings: po
Mus musculus [5] = test: Effective i.p. dose tested for muscle relaxant activity using inclined screen test in mouse (value range=100-200 mg/kg); settings: ip
Gallus gallus [6] = species on record: Gallus gallus; test: Evaluated for inhibition of AMPA (5 uM) evoked spreading depression in isolated retina prepared from young chicken at 20 uM; type: functional
Mus musculus [7] = test: Effective p.o. dose tested for anticonvulsant activity using maximal electroshock seizure model in mouse (highest test concentration); settings: po
Mus musculus [8] = test: Effective i.p. dose tested for muscle relaxant activity using inclined screen test in mouse (highest test concentration); settings: ip
Mus musculus [9] = test: Effective p.o. dose tested for anticonvulsant activity using maximal electroshock seizure model in mouse (highest test concentration); settings: po; remark: listed apart in the source
Mus musculus [10] = test: Effective p.o. dose tested for anticonvulsant activity using maximal electroshock seizure model in mouse (SMA); settings: po
Mus musculus [11] = test: Effective p.o. dose tested for anticonvulsant activity using maximal electroshock seizure model in mouse; settings: po
Mus musculus [12] = test: Effective p.o. dose tested for anticonvulsant activity using maximal electroshock seizure model in mouse (high test concentration); settings: po
Mus musculus [13] = test: Effective i.p. dose tested for muscle relaxant activity using inclined screen test in mouse (value range= 11.2-16.0 mg/kg); settings: ip

For `Cc1cn2c(n1)Cc1ccc(Cl)cc1C(c1ccc(N)cc1)=N2`, the IC50 (Gallus gallus [1]) was 7.3 µM, the ED50 (Mus musculus [2]) was 24 mg/kg and the ED50 (Mus musculus [3]) was 36.5 mg/kg.
For `Nc1ccc(C2=Nn3cc(CO)nc3Cc3ccc(Cl)cc32)cc1`, the IC50 (Gallus gallus [1]) was 5 µM, the ED50 (Mus musculus [4]) was 50 mg/kg and the ED50 (Mus musculus [5]) was 200 mg/kg.
In the case of `CC(=O)Nc1ccc(C2=Nn3cc(C(=O)O)nc3Cc3ccc(Cl)cc32)cc1`, the Inhibition (Gallus gallus [6]) is reported as 33%, the ED50 (Mus musculus [7]) is reported as > 100 mg/kg and the ED50 (Mus musculus [8]) is reported as > 200 mg/kg.
With `Nc1ccc(C2=Nn3cc(C(=O)O)nc3Cc3ccc(Cl)cc32)cc1` the Inhibition (Gallus gallus [6]) was 55%, the ED50 (Mus musculus [8]) was > 200 mg/kg and the ED50 (Mus musculus [9]) was > 100 mg/kg.
In the case of `CC(=O)Nc1ccc(C2=Nn3cc(CO)nc3Cc3ccc(Cl)cc32)cc1`, the ED50 (Mus musculus [10]) is reported as > 100 mg/kg.
In the case of `CC(=O)Nc1ccc(C2=Nn3cc(C)nc3Cc3ccc(Cl)cc32)cc1`, the IC50 (Gallus gallus [1]) is reported as > 20 µM, the ED50 (Mus musculus [8]) is reported as > 200 mg/kg and the ED50 (Mus musculus [11]) is reported as 56 mg/kg.
With `CCOC(=O)c1cn2c(n1)Cc1ccc(Cl)cc1C(c1ccc(N)cc1)=N2` the IC50 (Gallus gallus [1]) was 20 µM, the ED50 (Mus musculus [8]) was > 200 mg/kg and the ED50 (Mus musculus [12]) was > 100 mg/kg.
`CC(=O)N1N=C(c2ccc(N)cc2)c2cc3c(cc2C[C@H]1C)OCO3` [TALAMPANEL] gave an ED50 (Mus musculus [13]) of 13.4 mg/kg.
